Patent publication US12617781B2, “Utidelone semi-hydrated single crystal and preparation method therefor and use thereof” (Beijing Biostar Pharmaceuticals Co., Ltd., priority 2020, dated 2026)
Like-named read-outs stand apart in the source and are kept apart here.

Key:
[1] = Stability in 0.1N hydrochloric acid solution; assay type: physicochemical
Experimental: The semihydrate crystal obtained in Example 1 was placed in a 0.1N hydrochloric acid solution, and the crystal was stable: no obvious degradation impurities were produced. Solubility >5 mg/ml.

[2] = Stability under strong light (light box); assay type: physicochemical; conditions: 4500 lx±500 lx, 10 days
Text: The semihydrate crystal obtained in Example 1 was placed in a light box, and placed for 10 days under the condition that the light intensity was 4500 lx±500 lx.

[3] = Stability test of the semihydrate crystal under storage conditions (temperature); assay type: physicochemical
Experimental: Stability test: The stability test of the semihydrate crystal was carried out under the following conditions:
(§1) Storage condition 1: 2-25° C., stored in a sealed state for more than 3 years, confirmed by NMR, HPLC, X-ray powder diffraction and infrared spectrum analysis, etc., the semihydrate crystal was stable (no changes in content, no impurities due to degradation, no changes in appearance and physicochemical properties).
as §1, with “Condition 2: 25°” for “condition 1: 2-25°”, “60%±10% RH, unsealed storage” for “stored in a sealed state”, “days, after the sample was continued to be stored at 25° C. for 1 year, it was” for “years,”
as §1, with “3: Stored” for “1: 2-25° C., stored”, “state at 40° C.” for “state”, “2 years. It was” for “3 years,”
as §1, with “Condition 4: Stored at 60° C.” for “condition 1: 2-25° C., stored in a sealed state”, “1 year. It was” for “3 years,”

[4] = Stability under high humidity; assay type: physicochemical
Text: The semihydrate crystal obtained in Example 1 was placed under the condition of relative humidity of 90%±5% for 10 days, and samples were taken on the 5th and 10th days.
Utidelone anhydrous crystal was placed under the condition of relative humidity of 90±5% for 10 days. Samples were taken on the 5th and 10th days. The moisture content increased and the moisture absorption was obvious.

Solubility test = assay type: physicochemical; conditions: thermodynamic from solid
[5] = PK study on intravenous administration of the pharmaceutical composition containing Utidelone semihydrate crystal; assay type: in vivo; conditions: for MRT / AUC(0-t) / half-life: human, in vivo, iv, 40 mg/m2, intravenous infusion 40 mg/m2 once a day for 5 days; for AUC(0-t): read-out: AUC(0-24); for half-life: read-out: elimination half-life t½ in plasma (converted); for apparent volume of distribution / plasma clearance CL: intravenous infusion 40 mg/m2 once a day for 5 days
Experimental: Utidelone injection was prepared with Utidelone crystals (crystal A or mixed crystals containing crystal A) and 50% v/v absolute ethanol (USP), 30% v/v propylene glycol (USP) and 20% v/v polyoxyl castor oil 1 (Cremophor EL or ELP) as a solubilizer. The injection has low water content and high stability.

[6] = high humidity conditions (summary statement)
[7] = relative humidity 90%±5%, 10 days, samples on 5th and 10th days

## C/C1=C/C[C@@H](/C(C)=C/c2csc(C)n2)OC(=O)C[C@H](O)C(C)(C)C(=O)[C@H](C)[C@@H](O)[C@@H](C)CCC1 [semihydrate crystal]
[1]
  Stability (degradation impurities): stable
[2]
  Moisture content: basically unchanged
  Stability (content, degradation impurities, appearance, physicochemical properties): stable
[3]; 40° C.
  Storage time without changes in substance: more than 3 years
[3]; 60° C.
  Storage time without changes in substance: more than 1 year
[3]; Storage condition 1: 2-25° C., sealed, more than 3 years, NMR, HPLC, XRPD, IR
  Stability (content, degradation impurities, appearance, physicochemical properties): stable
[3]; Storage condition 2: 25° C., 60%±10% RH, unsealed more than 3 days, then 25° C. for 1 year
  Stability (content, degradation impurities, appearance, physicochemical properties): stable
[3]; Storage condition 3: sealed, 40° C., more than 2 years
  Stability (content, degradation impurities, appearance, physicochemical properties): stable
[3]; Storage condition 4: 60° C., more than 1 year
  Stability (content, degradation impurities, appearance, physicochemical properties): stable
[4]; [6]
  Stability: very stable
  Water content: does not change significantly
[4]; [7]
  Moisture content: basically unchanged
  Stability (content, degradation impurities, appearance, physicochemical properties): stable
Solubility test; 0.1N hydrochloric acid solution, simulated gastric fluid
  solubility: > 5 mg/mL
Solubility test; 50% ethanol, 30% propylene glycol, 20% castor oil, organic solvent or mixture
  solubility: > 100 mg/mL
Solubility test; DMSO, organic solvent or mixture
  solubility: > 50 mg/mL
Solubility test; benzyl alcohol, organic solvent or mixture
  solubility: > 50 mg/mL
Solubility test; ethanol, organic solvent or mixture
  solubility: > 50 mg/mL
Solubility test; methanol, organic solvent or mixture
  solubility: > 50 mg/mL
Solubility test; propylene glycol, organic solvent or mixture
  solubility: > 50 mg/mL

## C/C1=C/C[C@@H](/C(C)=C/c2csc(C)n2)OC(=O)C[C@H](O)C(C)(C)C(=O)[C@H](C)[C@@H](O)[C@@H](C)CCC1 [Utidelone]
[5]; 40 mg/m2 once a day for 5 days, first vs last administration
  Accumulation in the body after continuous administration: did not accumulate
[5]; 1st day
  MRT: 4.5 ± 0.8 h
  AUC(0-t): 4180 ± 1010 ng·h/mL
  half-life: 8.6 ± 0.1 h
  apparent volume of distribution: 114.0±35.2 L/m2
  plasma clearance CL: 9.2±2.7 L/h/m2
[5]; 5th day
  MRT: 5.1 ± 0.7 h
  AUC(0-t): 4550 ± 1630 ng·h/mL
  half-life: 8.2 ± 1.1 h
  apparent volume of distribution: 109.1±62.6 L/m2
  plasma clearance CL: 8.9±3.9 L/h/m2

## C/C1=C/C[C@@H](/C(C)=C/c2csc(C)n2)OC(=O)C[C@H](O)C(C)(C)C(=O)[C@H](C)[C@@H](O)[C@@H](C)CCC1 [Utidelone anhydrous crystal]
[4]; [7]
  Moisture content: increased
[4]; relative humidity 90±5%, 10 days, samples on 5th and 10th days
  Moisture absorption: obvious
